From US11286263B2, “Macrocyclic fluorine substituted indole derivatives” (The Broad Institute, Inc., priority 2017, dated 2022)
pIC50: −log10 of the molar value. Structures can show the parent of a compound that is named as a salt. Where two headings read alike, the source gives them in different places.

Legend:
A2058 = experiment: Antiproliferation assay A2058 (Assay 7); format: cell-based; details: Homo sapiens; A2058 cells, 72 h, CellTiter-Glo; single determinations; read-out: IC50 Antiproli A2058
Procedure: (§1) Assessment of the Anti-Proliferative Effect of Compounds in Different Cell Lines
(§2) The impact of compounds on the proliferation of different cell lines was assessed using the CellTiter-Glo® Luminescent Cell Viability reagent from Promega (G7573).
(§3) In parallel, cells were plated in a reference (day 0) plate for time zero determination.
(§4) Rim wells were excluded. The cells were incubated for 72 h hours in a humidified incubator at 37° C. The day 0 plate was measured by adding 30 μL/well of CTG solution (CellTiter-Glo® Luminescent Cell Viability reagent, Promega G7573) to time zero wells in the reference plate followed by a 10 minutes incubation and luminescence reading at 0.1 ms. using the PHERAstar FS microplate reader (BMG Labtech).
(§5) After 72 h incubation, the treated plates were measured in the same way as the day 0 plate mentioned above.

SK-BR-3 = experiment: Antiproliferation assay SK-BR-3 (Assay 7); format: cell-based; details: SK-BR-3 cells, CellTiter-Glo, single determinations, read-out: IC50 Antiproli SK-BR-3
Procedure: as §1, §2, §3, §4, §5

NCI-H23 = experiment: Antiproliferation assay NCI-H23 (Assay 7); format: cell-based; details: NCI-H23 cells, CellTiter-Glo, single determinations, read-out: IC50 Antiproli NCI-H23
Procedure: as §1, §2, §3, §4, §5

BxPC-3 = experiment: Antiproliferation assay BxPC-3 (Assay 7); format: cell-based; details: Homo sapiens; BxPC-3 cells, 72 h, CellTiter-Glo; single determinations; read-out: IC50 Antiproli BxPC-3
Procedure: as §1, §2, §3, §4, §5

Procedure for SUDHL10: (§6) In principle, compounds that induce apoptosis will concomitantly induce cell cytotoxicity. Therefore, cytotoxicity assays were run in parallel in SUDHL5 and SUDHL10 cells.
(§7) The different cell lines were plated in culture medium (RPMI 1640 [GIBCO #22400-089] supplemented with 10% Fetal Bovine Serum) at a density of 3,300 cells in 30 μl/well in a sterile, solid black, flat bottom, polystyrene, TC-treated 384-well microplate (Corning #3571) using Multidrop Combi Reagent Dispenser. As a control, medium without cells was also added to the plate. Cells were incubated in a humidified incubator at 37° C. overnight. On the next day, the cells were treated with compounds (stock solution, 10 mM in DMSO) using the HP D300 Digital Dispenser in a concentration range of 3.3×10e-5 M (33 μM) to 5×10e-9 M (5 nM) in a single-dot curve with at least 16 dilutions and a DMSO concentration of 0.33%. Rim wells were excluded. The cells were incubated for 5 h hours in a humidified incubator at 37° C. After this incubation, 30 μl of CellTiter-Glo® Luminescent Cell Viability reagent (Promega, G7573) was added to each well using the Multidrop Combi Reagent Dispenser, followed by 15 min incubation on a shaker at room temperature. Finally, luminescence was read at 0.1 ms, with a gain of 3000 using the PHERAstar FS microplate reader (BMG Labtech).
(§8) The Bella DRC Master Sheet was used to calculate IC50s, with fixed CI=0 and C0=1.
Procedure for SUDHL5: as §6, §7, §8

pIC50 (SK-BR-3; Homo sapiens, SK-BR-3, 72 h) | pIC50 (NCI-H23; Homo sapiens, NCI-H23, 72 h) | Molecule | pIC50 (A2058) | other results
5.15 | 5.12 | Cc1c2c(nn1C)COCCCCn1c(C(=O)O)c(CCCOc3cccc4ccccc34)c3ccc(F)c-2c31 (racemic) [Example 2, (rac)-4-fluoro-2,3-dimethyl-7-[3-(naphthalen-1-yloxy)propyl]-2,10,11,12,13,15-hexahydro-pyrazolo[4′,3′:9,10][1,6]oxazacycloundecino[8,7,6-hi]indole-8-carboxylic acid] | < 4.48 | pIC50 (SK-BR-3; 72 h, listed as 02): 5.16; pIC50 (NCI-H23; 72 h, listed as 02): 5.02
– | – | (rac)-1-(3-((2,3-dihydro-1H-inden-4-yl)oxy)propyl)-12-ethyl-13-fluoro-11-methyl-4,5,6,7,9,11-hexahydropyrazolo[4′,3′:9,10][1]oxa[6]azacycloundecino[8,7,6-hi]indole-2-carboxylic acid [Example 30] | – | pIC50 (SUDHL10): 5.89; pIC50 (SUDHL5): 5.96
5.02 | 5.16 | Cc1c2c(nn1C)COCCCCn1c(C(=O)O)c(CCCOc3cccc4ccccc34)c3ccc(F)c-2c31 (single isomer, unassigned; enantiomer 1) [Example 3, 4-fluoro-2,3-dimethyl-7-[3-(naphthalen-1-yloxy)propyl]-2,10,11,12,13,15-hexahydropyrazolo-[4′,3′:9,10][1,6]oxazacycloundecino[8,7,6-hi]indole-8-carboxylic acid-N-ethylethanamine salt (enantiomer 1)] | < 4.48 | –
– | – | CCc1c2c(nn1C)COCCCCn1c(C(=O)O)c(CCCOc3cccc4cc(F)ccc34)c3ccc(F)c-2c31 (single isomer, unassigned; enantiomer 1) [Example 22, 3-ethyl-4-fluoro-7-{3-[(6-fluoronaphthalen-1-yl)oxy]propyl}-2-methyl-2,10,11,12,13,15-hexahydropyrazolo[4′,3′:9,10][1,6]oxazacycloundecino[8,7,6-hi]indole-8-carboxylic acid-N-ethylethanamine salt (enantiomer 1)] | – | pIC50 (BxPC-3): 4.63
